These results are taken from paper PMC5218480 (PLoS ONE, 2017).

The test system of this assay is MV-4-11 cells. Put plainly: Gene expression microarray analysis (Affymetrix PrimeView) and GSEA. The format is cell-based, human. On the set-up: RFU PODN (11730768_x_at) / Fold change /veh PODN (11730768_x_at) / RFU LINC00158 (11744669_a_at) / Fold change /veh LINC00158 (11744669_a_at) / RFU DUSP10 (11751237_a_at) / Fold change /veh DUSP10 (11751237_a_at) / RFU ID3 (11757404_x_at) / Fold change /veh ID3 (11757404_x_at) / RFU PLEKHG5 (11737974_s_at) / Fold change /veh PLEKHG5 (11737974_s_at) / RFU LRRC4B (11730491_at) / Fold change /veh LRRC4B (11730491_at) / RFU GIMAP4 (11747438_a_at) / Fold change /veh GIMAP4 (11747438_a_at) / RFU KRT8 (11758183_x_at) / Fold change /veh KRT8 (11758183_x_at) / RFU CNN1 (11734310_a_at) / Fold change /veh CNN1 (11734310_a_at) / RFU VPS37D (11726825_at) / Fold change /veh VPS37D (11726825_at) / RFU C10orf10 (11716522_x_at) / Fold change /veh C10orf10 (11716522_x_at) / RFU KIR2DL2 /// KIR2DL4 /// KIR2DL5A /// KIR2DL5B /// KIR2DS1 /// KIR2DS2 /// KIR2DS3 /// KIR2DS4 /// KIR3DL3 /// KIR3DL3 /// KIR3DS1 (11738374_at) / Fold change /veh KIR2DL2 /// KIR2DL4 /// KIR2DL5A /// KIR2DL5B /// KIR2DS1 /// KIR2DS2 /// KIR2DS3 /// KIR2DS4 /// KIR3DL3 /// KIR3DL3 /// KIR3DS1 (11738374_at) / RFU C1QL1 (11718748_at) / Fold change /veh C1QL1 (11718748_at) / RFU TMPRSS4 (11747572_a_at) / Fold change /veh TMPRSS4 (11747572_a_at) / RFU HAMP (11756126_x_at) / Fold change /veh HAMP (11756126_x_at) / RFU RNFT2 (11725882_a_at) / Fold change /veh RNFT2 (11725882_a_at) / RFU NR4A2 (11747474_a_at) / Fold change /veh NR4A2 (11747474_a_at) / RFU ABCC12 (11746883_a_at) / Fold change /veh ABCC12 (11746883_a_at) / RFU TMEM136 (11760407_x_at) / Fold change /veh TMEM136 (11760407_x_at) / RFU CLDN22 /// WWC2 (11732394_at) / Fold change /veh CLDN22 /// WWC2 (11732394_at) / RFU HLA-DPB1 (11760878_x_at) / Fold change /veh HLA-DPB1 (11760878_x_at) / RFU SPINT1 (11716480_a_at) / Fold change /veh SPINT1 (11716480_a_at) / RFU GAP43 (11754022_s_at) / Fold change /veh GAP43 (11754022_s_at) / RFU A4GNT (11735810_at) / Fold change /veh A4GNT (11735810_at) / RFU PRB3 (11715151_x_at) / Fold change /veh PRB3 (11715151_x_at) / RFU TUBB4B (11761932_at) / Fold change /veh TUBB4B (11761932_at) / RFU CAPN14 (11732068_a_at) / Fold change /veh CAPN14 (11732068_a_at) / RFU TMCC2 (11721928_a_at) / Fold change /veh TMCC2 (11721928_a_at) / RFU IRGQ (11745062_a_at) / Fold change /veh IRGQ (11745062_a_at) / RFU FAM174B (11720279_a_at) / Fold change /veh FAM174B (11720279_a_at) / RFU TMPRSS4 (11748680_a_at) / Fold change /veh TMPRSS4 (11748680_a_at) / RFU FAM212B (11763350_a_at) / Fold change /veh FAM212B (11763350_a_at) / RFU PLEKHG5 (11743358_a_at) / Fold change /veh PLEKHG5 (11743358_a_at) / RFU ZSCAN30 (11745921_a_at) / Fold change /veh ZSCAN30 (11745921_a_at) / RFU CMKLR1 (11741424_a_at) / Fold change /veh CMKLR1 (11741424_a_at) / RFU LOC101060620 /// MAPK8IP1 (11723275_at) / Fold change /veh LOC101060620 /// MAPK8IP1 (11723275_at) / RFU SPTSSB (11747773_x_at) / Fold change /veh SPTSSB (11747773_x_at) / RFU PRSS12 (11739890_at) / Fold change /veh PRSS12 (11739890_at) / RFU BIN1 (11741810_x_at) / Fold change /veh BIN1 (11741810_x_at) / RFU WNT11 (11732464_a_at) / Fold change /veh WNT11 (11732464_a_at) / RFU C10orf10 (11716521_a_at) / Fold change /veh C10orf10 (11716521_a_at) / RFU C5orf56 (11738089_at) / Fold change /veh C5orf56 (11738089_at) / RFU CYB561 (11721691_x_at) / Fold change /veh CYB561 (11721691_x_at) / RFU ANKRD19P (11752326_a_at) / Fold change /veh ANKRD19P (11752326_a_at) / RFU OR2T12 /// OR2T33 /// OR2T8 (11738714_s_at) / Fold change /veh OR2T12 /// OR2T33 /// OR2T8 (11738714_s_at) / RFU VCAN (11748164_a_at) / Fold change /veh VCAN (11748164_a_at) / RFU JSRP1 (11732532_at) / Fold change /veh JSRP1 (11732532_at) / RFU KRTAP10-11 (11738290_x_at) / Fold change /veh KRTAP10-11 (11738290_x_at) / RFU MYO3A (11730013_a_at) / Fold change /veh MYO3A (11730013_a_at) / RFU EBF3 (11725865_a_at) / Fold change /veh EBF3 (11725865_a_at) / RFU CAMK2N1 (11719241_x_at) / Fold change /veh CAMK2N1 (11719241_x_at) / RFU C5orf56 (11738088_a_at) / Fold change /veh C5orf56 (11738088_a_at) / RFU OLFML3 (11715873_a_at) / Fold change /veh OLFML3 (11715873_a_at) / RFU LOC100653217 /// NTM (11731650_a_at) / Fold change /veh LOC100653217 /// NTM (11731650_a_at) / RFU MAPK11 (11762145_a_at) / Fold change /veh MAPK11 (11762145_a_at) / RFU FIZ1 (11724087_x_at) / Fold change /veh FIZ1 (11724087_x_at) / RFU OASL (11726364_x_at) / Fold change /veh OASL (11726364_x_at) / RFU SOX15 (11748057_x_at) / Fold change /veh SOX15 (11748057_x_at) / RFU CD79A (11719716_a_at) / Fold change /veh CD79A (11719716_a_at) / RFU HIST1H1D (11736915_at) / Fold change /veh HIST1H1D (11736915_at) / RFU CASKIN2 (11723855_a_at) / Fold change /veh CASKIN2 (11723855_a_at) / RFU LOC730098 (11760151_x_at) / Fold change /veh LOC730098 (11760151_x_at) / RFU OR4N2 (11742367_at) / Fold change /veh OR4N2 (11742367_at) / RFU PRRT2 (11749266_a_at) / Fold change /veh PRRT2 (11749266_a_at) / RFU SNX32 (11753110_a_at) / Fold change /veh SNX32 (11753110_a_at) / RFU CDHR5 (11726645_a_at) / Fold change /veh CDHR5 (11726645_a_at) / RFU RCAN1 (11760418_a_at) / Fold change /veh RCAN1 (11760418_a_at) / RFU FAM167A (11723789_a_at) / Fold change /veh FAM167A (11723789_a_at) / RFU FAM26E (11764081_at) / Fold change /veh FAM26E (11764081_at) / RFU ISYNA1 (11749810_s_at) / Fold change /veh ISYNA1 (11749810_s_at) / RFU ACY1 (11761880_at) / Fold change /veh ACY1 (11761880_at) / RFU 11764098_at / Fold change /veh 11764098_at / RFU SAMD14 (11745864_x_at) / Fold change /veh SAMD14 (11745864_x_at) / RFU NPB (11741838_a_at) / Fold change /veh NPB (11741838_a_at) / RFU TMPRSS6 (11731388_a_at) / Fold change /veh TMPRSS6 (11731388_a_at) / RFU KRTAP10-2 (11738614_at) / Fold change /veh KRTAP10-2 (11738614_at) / RFU ARHGAP8 /// PRR5-ARHGAP8 (11727945_x_at) / Fold change /veh ARHGAP8 /// PRR5-ARHGAP8 (11727945_x_at) / RFU KRTAP5-7 /// NADSYN1 (11734609_at) / Fold change /veh KRTAP5-7 /// NADSYN1 (11734609_at) / RFU RASL12 (11751679_a_at) / Fold change /veh RASL12 (11751679_a_at) / RFU CDKN2B (11736163_a_at) / Fold change /veh CDKN2B (11736163_a_at) / RFU PRF1 (11729649_at) / Fold change /veh PRF1 (11729649_at) / RFU, ZNF638 /// ZNF638-IT1 / Fold change vs veh, ZNF638 /// ZNF638-IT1 / RFU, PANK3 / Fold change vs veh, PANK3 / RFU, SH3YL1 / Fold change vs veh, SH3YL1 / RFU, ZEB2 / Fold change vs veh, ZEB2 / RFU, NRIP1 / Fold change vs veh, NRIP1 / RFU, PTTG1IP / Fold change vs veh, PTTG1IP / RFU, CAPN2 / Fold change vs veh, CAPN2 / RFU, MED14 / Fold change vs veh, MED14 / RFU, SNORA58 / Fold change vs veh, SNORA58 / RFU, C1orf63 / Fold change vs veh, C1orf63 / RFU, LRRFIP1 / Fold change vs veh, LRRFIP1 / RFU, NDUFAF7 / Fold change vs veh, NDUFAF7 / RFU, SLC12A2 / Fold change vs veh, SLC12A2 / RFU, IBTK / Fold change vs veh, IBTK / RFU, ESF1 / Fold change vs veh, ESF1 / Fold change vs veh, TMEM50B / RFU, TAOK1 / Fold change vs veh, TAOK1 / RFU, ACBD3 / Fold change vs veh, ACBD3 / RFU, TMA16 / Fold change vs veh, TMA16 / RFU, RWDD3 / Fold change vs veh, RWDD3 / RFU, BCAT1 / Fold change vs veh, BCAT1 / RFU, EDEM3 / Fold change vs veh, EDEM3 / RFU, TMEM33 / Fold change vs veh, TMEM33 / RFU, WDR75 / Fold change vs veh, WDR75 / RFU, AHCTF1 / Fold change vs veh, AHCTF1 / RFU, TFRC / Fold change vs veh, TFRC / RFU, ZDHHC17 / Fold change vs veh, ZDHHC17 / RFU, NOM1 / Fold change vs veh, NOM1 / RFU, ARL8B / Fold change vs veh, ARL8B / RFU, ZBTB11 / Fold change vs veh, ZBTB11 / RFU, TAMM41 / Fold change vs veh, TAMM41 / RFU, KIAA1704 /// LOC100996395 / Fold change vs veh, KIAA1704 /// LOC100996395 / RFU, ING1 / Fold change vs veh, ING1 / RFU, TRMT61B / Fold change vs veh, TRMT61B / RFU, FUBP3 / Fold change vs veh, FUBP3 / RFU, TP53 / Fold change vs veh, TP53 / RFU, TNKS2 / Fold change vs veh, TNKS2 / RFU, ZFP14 / Fold change vs veh, ZFP14 / RFU, ACTR2 / Fold change vs veh, ACTR2 / RFU, PPP3R1 / Fold change vs veh, PPP3R1 / RFU, PIK3R1 / Fold change vs veh, PIK3R1 / RFU, HNRNPA1 / Fold change vs veh, HNRNPA1 / RFU, RNF170 / Fold change vs veh, RNF170 / RFU, ZNF28 / Fold change vs veh, ZNF28 / RFU, RNGTT / Fold change vs veh, RNGTT / RFU, OGT / Fold change vs veh, OGT / RFU, BRD1 / Fold change vs veh, BRD1 / RFU, MARS / Fold change vs veh, MARS / RFU, ZNF655 / Fold change vs veh, ZNF655 / RFU, FAHD1 / Fold change vs veh, FAHD1 / RFU, BDP1 / Fold change vs veh, BDP1 / RFU, LRRCC1 / Fold change vs veh, LRRCC1 / RFU, ARID1A / Fold change vs veh, ARID1A / RFU, ZNF146 / Fold change vs veh, ZNF146 / RFU, ZNF330 / Fold change vs veh, ZNF330 / RFU, GPN3 / Fold change vs veh, GPN3 / RFU, C9orf123 / Fold change vs veh, C9orf123 / RFU, N4BP2L2 / Fold change vs veh, N4BP2L2 / RFU, ARFIP1 / Fold change vs veh, ARFIP1 / RFU, FAM179B / Fold change vs veh, FAM179B / RFU, BCL10 / Fold change vs veh, BCL10 / RFU, UHRF1BP1L / Fold change vs veh, UHRF1BP1L / RFU, BET1 / Fold change vs veh, BET1 / RFU, CNOT2 / Fold change vs veh, CNOT2 / RFU, ZNF268 / Fold change vs veh, ZNF268 / Fold change vs veh, ZNF507 / RFU, DGCR2 / Fold change vs veh, DGCR2 / RFU, WDSUB1 / Fold change vs veh, WDSUB1 / Fold change vs veh, HSP90B1 /// MIR3652 / RFU, ADSS / Fold change vs veh, ADSS / RFU, GK / Fold change vs veh, GK / RFU, ZNF148 / Fold change vs veh, ZNF148 / RFU, TAF9 / Fold change vs veh, TAF9 / RFU, SLC1A5 / Fold change vs veh, SLC1A5 / RFU, SLMO2 / Fold change vs veh, SLMO2 / RFU, ABCC4 / Fold change vs veh, ABCC4 / RFU, LOC101060439 /// RAP1B / Fold change vs veh, LOC101060439 /// RAP1B / RFU, RFX7 / Fold change vs veh, RFX7 / RFU, GTPBP10 / Fold change vs veh, GTPBP10 / RFU, CNEP1R1 / Fold change vs veh, CNEP1R1 / RFU, BIVM-ERCC5 /// ERCC5 / Fold change vs veh, BIVM-ERCC5 /// ERCC5 / RFU, ILF3 / Fold change vs veh, ILF3 / RFU 11762660_at / Fold change /veh 11762660_at / RFU VCAN (11757783_s_at) / Fold change /veh VCAN (11757783_s_at) / RFU DDX43 (11728927_at) / Fold change /veh DDX43 (11728927_at) / RFU KRT8 (11758188_x_at) / Fold change /veh KRT8 (11758188_x_at) / RFU NKD1 (11759106_at) / Fold change /veh NKD1 (11759106_at) / RFU SRD5A1 (11742802_a_at) / Fold change /veh SRD5A1 (11742802_a_at) / RFU TPSAB1 /// TPSB2 (11721975_s_at) / Fold change /veh TPSAB1 /// TPSB2 (11721975_s_at) / RFU GSTM3 (11746129_a_at) / Fold change /veh GSTM3 (11746129_a_at) / RFU IL23R (11737362_x_at) / Fold change /veh IL23R (11737362_x_at) / RFU TMEM51 (11727254_a_at) / Fold change /veh TMEM51 (11727254_a_at) / RFU PIWIL2 (11732686_x_at) / Fold change /veh PIWIL2 (11732686_x_at) / RFU ORM1 (11744905_x_at) / Fold change /veh ORM1 (11744905_x_at) / RFU CCDC152 (11743942_at) / Fold change /veh CCDC152 (11743942_at) / RFU ECM1 (11717891_a_at) / Fold change /veh ECM1 (11717891_a_at) / RFU IL23R (11748794_a_at) / Fold change /veh IL23R (11748794_a_at) / RFU TNFAIP8L3 (11732012_x_at) / Fold change /veh TNFAIP8L3 (11732012_x_at) / RFU MBOAT4 (11741988_at) / Fold change /veh MBOAT4 (11741988_at) / RFU 11764193_at / Fold change /veh 11764193_at / RFU TMEM53 (11763286_at) / Fold change /veh TMEM53 (11763286_at) / RFU MAGEB2 (11727129_at) / Fold change /veh MAGEB2 (11727129_at) / RFU TMEM200A (11744735_a_at) / Fold change /veh TMEM200A (11744735_a_at) / RFU CCDC152 (11751479_a_at) / Fold change /veh CCDC152 (11751479_a_at) / RFU FAM211A (11726209_a_at) / Fold change /veh FAM211A (11726209_a_at) / RFU RGS16 (11746705_a_at) / Fold change /veh RGS16 (11746705_a_at) / RFU VCAN (11755009_s_at) / Fold change /veh VCAN (11755009_s_at) / RFU RHOB (11743442_s_at) / Fold change /veh RHOB (11743442_s_at) / RFU RGS16 (11720943_a_at) / Fold change /veh RGS16 (11720943_a_at) / RFU RGS16 (11720944_at) / Fold change /veh RGS16 (11720944_at) / RFU, VPS4B / Fold change vs veh, VPS4B / RFU, CREB1 / Fold change vs veh, CREB1 / RFU, DNAJC13 / Fold change vs veh, DNAJC13 / RFU, GNAQ / Fold change vs veh, GNAQ / RFU, CDK5R1 / Fold change vs veh, CDK5R1 / RFU, ZRANB3 / Fold change vs veh, ZRANB3 / RFU, CUL4A / Fold change vs veh, CUL4A / RFU, CCNY / Fold change vs veh, CCNY / RFU, UFL1 / Fold change vs veh, UFL1 / RFU, COG3 / Fold change vs veh, COG3 / RFU, DIAPH2 / Fold change vs veh, DIAPH2 / RFU, SKA2 / Fold change vs veh, SKA2 / RFU, AFF3 / Fold change vs veh, AFF3 / RFU, LMF1 / Fold change vs veh, LMF1 / RFU, IPO11 / Fold change vs veh, IPO11 / RFU, DFFB / Fold change vs veh, DFFB / RFU, FOXP1 / Fold change vs veh, FOXP1 / RFU, CARD8 / Fold change vs veh, CARD8 / RFU, STRN3 / Fold change vs veh, STRN3 / RFU, ADK / Fold change vs veh, ADK / RFU, RASSF2 / Fold change vs veh, RASSF2 / RFU, WIPF1 / Fold change vs veh, WIPF1 / RFU, LARP1B / Fold change vs veh, LARP1B / RFU, RASA1 / Fold change vs veh, RASA1 / RFU, RB1 / Fold change vs veh, RB1 / RFU, PPFIA1 / Fold change vs veh, PPFIA1 / RFU, MAT2A / Fold change vs veh, MAT2A / RFU, CCT5 / Fold change vs veh, CCT5 / RFU, WDR92 / Fold change vs veh, WDR92 / RFU, CUX1 / Fold change vs veh, CUX1 / RFU, TTC7A / Fold change vs veh, TTC7A / RFU, TMEM135 / Fold change vs veh, TMEM135 / RFU, DEPTOR / Fold change vs veh, DEPTOR / RFU, CPM / Fold change vs veh, CPM / RFU, DNAJB6 / Fold change vs veh, DNAJB6 / RFU, CACNA2D3 / Fold change vs veh, CACNA2D3 / RFU, DTX4 / Fold change vs veh, DTX4 / RFU, TFCP2 / Fold change vs veh, TFCP2 / RFU, GMCL1 /// GMCL1P1 / Fold change vs veh, GMCL1 /// GMCL1P1 / RFU, AEBP2 / Fold change vs veh, AEBP2 / RFU, SNHG1 /// SNORD22 /// SNORD25 /// SNORD26 /// SNORD27 /// SNORD28 /// SNORD29 /// SNORD31 / Fold change vs veh, SNHG1 /// SNORD22 /// SNORD25 /// SNORD26 /// SNORD27 /// SNORD28 /// SNORD29 /// SNORD31 / Fold change (Aza/veh), C12orf56 (ProbeSet 11735607_a_at) / Fold change (ACY-1035/veh), C12orf56 (ProbeSet 11735607_a_at) / Fold change (Aza/veh), FGFR1OP (ProbeSet 11751329_s_at) / Fold change (ACY-1035/veh), FGFR1OP (ProbeSet 11751329_s_at) / Fold change (Aza/veh), VPS36 (ProbeSet 11739960_a_at) / Fold change (ACY-1035/veh), VPS36 (ProbeSet 11739960_a_at) / RFU SYPL1 (11715823_x_at) / Fold change /veh SYPL1 (11715823_x_at) / RFU IGFBP7 (11715501_s_at) / Fold change /veh IGFBP7 (11715501_s_at) / RFU REEP3 (11722064_at) / Fold change /veh REEP3 (11722064_at) / RFU IGLL1 (11728026_x_at) / Fold change /veh IGLL1 (11728026_x_at): dose or concentration left out as unconfirmed. The note with it: ProbeSet 11741070_a_at; LIST B.

As to `Nc1ccc(-c2cccs2)cc1NC(=O)c1ccc2c(c1)cc(C1CC1)n2CCN1CCOCC1` [ACY-1035], the “Fold change vs veh, ZNF146” value is listed as 0.99.
